Patent US20020062490A1, “Hypertension” (priority 2000, published 2002)
Where “and” joins values, the source holds several entries; their conditions need not be identical. Identical values can stand only once.

How the values were obtained:
[1] = Blood pressure responses in anesthetized mice to infused GPCR agonists; assay type: in vivo; settings: for increase over resting MAP: 1 μg/kg angiotensin II; for decrease from resting MAP: 0.156 μg/kg isoproterenol, n=3; for change from resting diastolic pressure: 0.625 μg/kg isoproterenol; for diastolic pressure response: 10 μg/kg isoproterenol; for MAP response (increase over resting MAP): 8 μg/kg phenylephrine
Protocol: In order to begin to understand the mechanisms involved in the GRK2 overexpression-induced hypertension and the receptors that are desensitized, blood pressure responses were measured in anesthetized mice following angiotensin II (FIG. 5A), phenylephrine (FIG. 5B) or isoproterenol (FIG. 5C) infusion. The response to 1 μg/kg angiotensin II was attenuated (NLC 91+12%, n=9 versus BK25 43+8% increase over resting MAP, n=4, p=0.02), as were responses to 8 μg/kg phenylephrine (NLC: 44±11% versus 4±5%, n=4, p=0.04). MAP responses to isoproterenol were not different in GRK2 overexpressing mice as compared with NLC. However, isoproterenol has a significant effect on heart rate that could affect MAP. Therefore, diastolic pressure was examined as a rough estimate of peripheral resistance.
In vivo Physiology: Mice were anesthetized with ketamine (100 mg/kg body weight) and xylazine (5 mg/kg body weight). Subsequently, a flexible plastic catheter (flame-stretched PE50 tubing) was placed in the left carotid artery to monitor arterial pressure and tunneled subcutaneously to exit at the nape of the neck. The catheter was then flushed with 100 μL of heparinized phosphate-buffered saline (PBS) (30 U/mL), sealed and attached to the skin between the scapulae. Twenty-four hours later, blood pressure measurements are recorded from awake, unrestrained mice. Intra-arterial blood pressure is recorded continuously through the carotid catheter using PowerLab (ADInstruments, Mountainview, Calif.) data acquisition and software. In both anesthetized and awake animals, systolic (SBP) and diastolic blood pressure (DBP), and heart rate were measured. Mean arterial pressure (MAP) was calculated as DBP+⅓(SBP- DBP). The recordings from animals in each experimental group were then integrated and averaged. To analyze acute blood pressure responses, a second catheter was placed in the jugular vein to infuse agonists. Immediately following an equilibration period, mice received a bolus injection at 2-5 min intervals.

[2] = test system: aortic VSM cells; test: MAPK (ERK1/2) activity after βAR stimulation in aorta VSM cells; assay type: cell-based, mice; settings: 10^−5M isoproterenol, 5 minutes
Protocol: MAPK Activity: To study MAPK activity, cells were stimulated with isoproterenol at the described concentration for 5 minutes. Cells were then harvested and homogenized in ice-cold RIPA buffer with 1 mM sodium orthovanadate (Iaccarino et al, Proc. Natl. Acad. Sci. USA 96:3945-3950 (1999b)). MAPK activity as assessed by phosphorylated protein levels was performed by activity assays as previously described (Iaccarino et al, Proc. Natl. Acad. Sci. USA 96:3945-3950 (1999b)). Protein immunoblotting for the activated phosphorylated forms of ERK1/2 and JNK1/3 (New England Biolabs) was normalized to total MAPK levels using antibodies specific to total ERK1/2 and JNK1 (Santa Cruz Biotechnologies, California).
As a second assay to measure βAR mediated signaling in VSM cells from GRK2 transgenic and NLC mice, we investigated MAPK activity after βAR stimulation. Two MAPKs were studied, extracellular-regulated kinase (ERK1/2 or p42/p44 MAPKs) and c-jun kinase (JNK). FIG. 7C is a representative autoradiograph of the ability of immunoprecipitated ERK1/2 or JNK1/3 to phosphorylates their in vitro substrates myelin basic protein (MBP) or GST-c-jun, respectively, after the addition of different doses of isoproterenol to aortic VSM cells from NLC and SM22α-GRK2-25 mice. […] This was also the case for the activity of JNK1/3 and its ability to phosphorylate GST-c-jun (FIG. 7C). […]

[3] = test system: aortic VSM cells; test: Intracellular cAMP accumulation (adenylyl cyclase activity) in cultured aortic VSM cells; assay type: cell-based; settings: aortic VSM cells from SM22α-GRK2-25 mice, compared with NLC cells
Protocol: Cell Culture: Primary cultures of VSM from thoracic aortas and vena cava were obtained and cultured as described (Chen et al, J. Biol. Chem. 270:30980-30988 (1995)). To determine adenylyl cyclase activity, cultured cells were grown to four days post-confluence. Cells were then labeled overnight in 3.0 μCi/mL [^3H]adenine (DuPont/NEN) in medium 199 and then preincubated in medium 199 with 10 mM Hepes and 1 mM 3-isobutyl-1-methylxanthine (IBMX) for 30 min. Cells were then stimulated with the appropriate concentration of isoproterenol or […] for 15 minutes. Following incubation, cAMP was determined by anion exchange chromatography and a percent incorporation of the total [^3H] uptake was calculated. To determine if enhanced expression and activity of GRK2 seen in cultured VSM cells from SM22α-GRK2 mice could exert an effect on signaling, intracellular cAMP accumulation in cultured aortic VSM cells in response to the βAR agonist isoproterenol was examined.

[4] = test system: thoracic aorta ring segments; test: Responses of isolated thoracic aorta ring segments to GPCR agonists; set-up: species or system mice
Protocol: In Vitro Physiology: Aorta were dissected and cut into 2.5 mm rings. Rings were then placed in a 37° C. chamber (Kent Scientific) containing Krebs-Hensileit buffer and bubbled with 95% O2/5% CO2. Two stainless steel wires were placed through each ring and one wire is attached to a fixed end. The other was attached to a force transducer and contraction is measured by force displacement (PowerLab, ADInstruments, Mountainview, Calif.). Responses to various agonists were tested in the presence and absence (mechanically scraped using a thin wire or chemical inhibition of nitric oxide synthase using 100 μM L-NAME) of endothelial cells. For isoproterenol responses, pretension was established at 60% of the maximum phenylephrine response (3×10^−7M PE).
Pharmacology: To analyze the effect of VSM GRK2 overexpression independent of autonomic influences on the peripheral vasculature, responses of isolated thoracic aorta ring segments to the GPCR agonists isoproterenol (βAR) and phenylephrine ([…]) were examined. Endothelial cell presence was first verified by relaxation responses to 10^−5M acetylcholine. […] Accordingly, pretension for the βAR studies was established using 3×10^−7M phenylephrine, which corresponded to 60% maximum phenylephrine stimulation in both NLC and transgenic mice. […]

angiotensin II [GPCR agonist infused to raise blood pressure]
increase over resting MAP ([1]; anesthetized BK25 (GRK2 overexpressing) mice, n=4): 43+8% and 43±8%
increase over resting MAP ([1]; anesthetized NLC (WT) mice, n=9): 91+12% and 91±12%

CC(C)NCC(O)c1ccc(O)c(O)c1 (stereo not shown) [isoproterenol]
induction of phosphorylation status of ERK1/2 ([2]; NLC VSM cells): robust increase
induction of phosphorylation status of ERK1/2 (activation) ([2]; SM22α-GRK2-25 VSM cells): virtually abolished
cAMP generation [3]: minimal increase
decrease from resting MAP ([1]; anesthetized NLC mice): −30±2.8 mmHg
decrease from resting MAP ([1]; anesthetized SM22α-GRK2 mice): −4.7±3.2 mmHg
change from resting diastolic pressure ([1]; anesthetized BK25 mice, n=4): −11±3%
change from resting diastolic pressure ([1]; anesthetized NLC mice, n=9): −39±8%
diastolic pressure response ([1]; anesthetized BK25 mice, n=4): −11±3%
diastolic pressure response ([1]; anesthetized WT mice, n=9): −39±8%
MAP responses, GRK2 overexpressing mice compared with NLC ([1]; anesthetized mice, cumulative doses of isoproterenol): not different

CNC[C@H](O)c1cccc(O)c1 [phenylephrine]
MAP response (increase over resting MAP) ([1]; anesthetized GRK2 overexpressing (BK25) mice, n=4): 4±5%
MAP response (increase over resting MAP) ([1]; anesthetized NLC (WT) mice): 44±11%
fraction of maximum phenylephrine stimulation (pretension) ([4]; 3×10^−7M phenylephrine, aorta rings of both NLC and transgenic mice): 60%
constriction of aorta rings, NLC compared with SM22α-GRK2-25 mice ([4]; cumulative dose response): similar
